According to patent US20120277211A1, “METHODS AND COMPOSITIONS FOR THE TREATMENT OF PSYCHOTIC DISORDERS THROUGH THE IDENTIFICATION OF THE SULT4A1-1 HAPLOTYPE” (priority 2009, published 2012):
Where two headings read alike, the source gives them in different places. Marks after values point to notes of the source that are not given here.

Columns and labels:
[1] = test system: Caucasian schizophrenia patients; assay: CATIE: time to discontinuation for all causes by SULT4A1-1 status; type: in vivo, human
Text: The primary endpoint for the CATIE study was time to discontinuation for all causes (Lieberman et al., 2005). Thus the inventors evaluated the effect of SULT41-1 status on this important parameter.

[2] = test system: African American schizophrenia patients; assay: CATIE: change in total PANSS (LOCF) by SULT4A1-1 haplotype status, African Americans; type: in vivo, human; conditions: for Number of individuals with change in total PANSS ≦−20% (responders) / Number of individuals with change in total PANSS ≧−20% (non-responders): LOCF
Procedure: The design of the CATIE study has been described in detail by others (Lieberman et al., 2005; Stroup et al., 2003). […] A total of 738 subjects consented to provide DNA for genetic study. […] Retrospective genetic analyses, judged to be exempt from human studies requirements by an IRB, were conducted in the current study. All tested patients were studied using well established clinical endpoints comparing baseline, intermediate, and last observation carried forward (LOCF) for the PANSS scores using CATIE data. […] To remove time on drug as a variable for the CATIE trial, analysis was limited to only those patients who were randomized to a different drug following the initial washout period (drug switchers).

[3] = test system: Caucasian schizophrenia patients; assay: CATIE: hospitalization due to exacerbation of psychosis by SULT4A1-1 status; type: in vivo, human
Text: To assess if SULT4A1-1 status impacts the risk of hospitalization in Caucasians, the inventors assigned SULT4A1-1 status to each CATIE subject and evaluated hospitalization events due to exacerbation of psychosis. For this analysis, the inventors assigned a dichotomous value (positive or negative) for hospitalization status to subjects in each phase of the trial based on only the first hospitalization event for a given patient in that phase. Patients participating in Phases 1, 2, and/or 3 were included in the totals for the appropriate drug.
A Kaplan-Meier survival analysis was performed to determine whether there was a difference between the survival (hospitalization) rates for the SULT4A1-1 negative and SULT4A1-1 positive patient populations treated with each of the atypical antipsychotics. Survival plots model the fraction of the population that survived (i.e., no hospitalization event) as a function of time.

schizophrenia patients [4] = assay: CATIE: months of successful treatment measured by the CGI scale (TMSUCC1); type: in vivo, human
Text: The CATIE clinical data set included Clinical Global Impression (CGI) Scale, an observer-provided assessment of the psychiatric health of the patient (Stroup et al., 2003; Guy 1976). Patients are rated with the CGI Scale from 1 to 7, with higher scores indicating greater severity of illness. The CATIE study provided a response variable that measured the time (in months) of successful treatment as measured by the CGI scale (“TMSUCC1” in the CATIE data).

[5] = test system: Caucasian schizophrenia patients; assay: CATIE Phase I: change in total PANSS (LOCF) by SULT4A1-1 haplotype status, Caucasians; type: in vivo, human; conditions: for Percent change from baseline PANSS scores, mean (standard deviation): Phase I; for Percent change from baseline PANSS scores, mean (standard deviation) / Number of individuals with change in total PANSS ≦−20% (responders) / Number of individuals with change in total PANSS ≧−20% (non-responders) / Responders: LOCF; for Number of individuals with change in total PANSS ≦−20% (responders) / Number of individuals with change in total PANSS ≧−20% (non-responders) / Responders: CATIE Caucasians; for Responders: change in PANSS ≦−20%
Text: There are several different metrics for quantifying response in clinical trials of antipsychotic medications. The most commonly used psychometric instrument is the Positive and Negative Syndrome Scale (PANSS), a 30-item semi-quantitative instrument scored by clinical professionals (Kay et al., 1987). The greater the decrease in PANSS score, the better the clinical response. The most direct measure of clinical response is absolute change in PANSS score. In addition to absolute change, the improvement is often reported as a percentage change from baseline PANSS score.
A decrease of at least 20% in total PANSS is one commonly used threshold for response (Leucht et al., 2009).
The design of the CATIE study has been described in detail by others (Lieberman et al., 2005; Stroup et al., 2003). […] A total of 738 subjects consented to provide DNA for genetic study. […] Retrospective genetic analyses, judged to be exempt from human studies requirements by an IRB, were conducted in the current study.
All tested patients were studied using well established clinical endpoints comparing baseline, intermediate, and last observation carried forward (LOCF) for the PANSS scores using CATIE data. LOCF analysis is a commonly used clinical endpoint for clinical trials for neuropsychiatric drugs, with changes in PANSS scores of between negative 20% and negative 30% used as typical endpoints to indicate clinically significant response (Leucht et al., 2009). To remove time on drug as a variable for the CATIE trial, analysis was limited to only those patients who were randomized to a different drug following the initial washout period (drug switchers).
The CATIE clinical data set included baseline PANSS scores based on clinical assessments prior to initiation of the assigned therapy, but following the washout period for any patients previously on antipsychotic medication. Follow up PANSS data for the CATIE trial were collected at each visit as described in detail by others (Stroup et al., 2003).
Since follow-up on subjects was not done at uniform time intervals, analysis was done using the last observation for each patient in treatment Phase I of the trial as the measure of response (last observation carried forward, LOCF). Main effect and interaction terms between the SULT4A1-1 haplotype and drug therapy were included in the linear model. A pre-determined set of contrasts for differences in percent change PANSS by haplotype within each drug therapy (three comparisons) and by drug therapy within each haplotype (six comparisons) were evaluated, with adjustment for multiple-comparisons using the step-up false-discovery rate (FDR) controlling procedure (Benjamini and Hochberg, 1995). A sub-analysis omitting those patients who were randomized to the same antipsychotic drug therapy was also conducted.

schizophrenia patients [6] = conditions: Phase II; for Responders: decrease PANSS ≧20%, LOCF
[7] = test system: unsegmented patient populations; conditions: cited from earlier work
[8] = comparator = labelled drug in SULT4A1-1+ patients
[9] = complete sample, SULT4A1-1+, labelled drug vs Risperidone
[10] = complete sample, within drug, SULT4A1-1+ vs SULT4A1-1−
[11] = randomized to a different medication, SULT4A1-1+, labelled drug vs Risperidone
[12] = randomized to a different medication, within drug, SULT4A1-1+ vs SULT4A1-1−

With `OCCOCCN1CCN(C2=Nc3ccccc3Sc3ccccc32)CC1` [Quetiapine] the “Time to discontinuation, mean” value ([1]; SULT4A1-1 negative) was 8.6*** Months, the “Time to discontinuation, mean” value ([1]; SULT4A1-1 positive) was 10.3 Months and the Responders ([2]; SULT4A1-1 negative) was 26.5%. For the same compound, the “Number of individuals with change in total PANSS ≦−20% (responders)” value ([2]; SULT4A1-1 negative) was 9, the “Number of individuals with change in total PANSS ≧−20% (non-responders)” value ([2]; SULT4A1-1 negative) was 25 and the Responders ([2]; SULT4A1-1 positive) was 33.3%. The “Number of individuals with change in total PANSS ≦−20% (responders)” value ([2]; SULT4A1-1 positive) was 2, the “Number of individuals with change in total PANSS ≧−20% (non-responders)” value ([2]; SULT4A1-1 positive) was 4 and the “HOSP, number of patients hospitalized” value ([3]; SULT4A1-1 negative) was 24. For the same compound, the “HOSP, rate of hospitalization” value ([3]; SULT4A1-1 negative) was 19.5%, the “HOSP, number of patients hospitalized” value ([3]; SULT4A1-1 positive) was 1 and the “HOSP, rate of hospitalization” value ([3]; SULT4A1-1 positive) was 2.9%. For the same compound, the “HOSP, rate of hospitalization” value ([3]; Unsegmented) was 15.9%, the “HOSP, number of patients hospitalized” value ([3]; Unsegmented, Phases 1, 2 and/or 3, first event) was 25 and the “Kaplan-Meier: difference between survival (no hospitalization) rates of SULT4A1-1 negative and positive patients” value ([3]; per drug) was “significant difference”. The “Length of successful treatment (CGI Months), Mean” value (“Length of successful treatment” for short) (schizophrenia patients [4]; SULT4A1-1 negative) was 4.22 Months, the “Length of successful treatment” value (schizophrenia patients [4]; SULT4A1-1 positive) was 5.96^c Months and the “Length of successful treatment” value (schizophrenia patients [4]; Unsegmented) was 4.65 Months. For the same compound, the “Mean difference in total PANSS score between olanzapine and labelled drug, CATIE SULT4A1-1+” value ([5]; SULT4A1-1+) was −12.9, the “Percent change from baseline PANSS scores, mean (standard deviation)” value (“Percent change … (standard deviation)” for short) ([5]; SULT4A1-1+, complete sample) was −4.52 (17.6) % and the “Percent change … (standard deviation)” value ([5]; SULT4A1-1+, patients randomized to a different medication) was −6.44 (19.0) %. For the same compound, the “DELTA PANSS % (mean change in PANSS score from baseline to LOCF)” value ([5]; SULT4A1-1 negative) was 0*** %, the “Number of individuals with change in total PANSS ≦−20% (responders)” value ([5]; SULT4A1-1 negative) was 13 and the “Number of individuals with change in total PANSS ≧−20% (non-responders)” value ([5]; SULT4A1-1 negative) was 50. For the same compound, the Responders ([5]; SULT4A1-1 negative) was 20.6%**, the “DELTA PANSS % (mean change in PANSS score from baseline to LOCF)” value ([5]; SULT4A1-1 positive) was −9** % and the “Number of individuals with change in total PANSS ≧−20% (non-responders)” value ([5]; SULT4A1-1 positive) was 11. For the same compound, the “Number of individuals with change in total PANSS ≦−20% (responders)” value ([5]; SULT4A1-1 positive, randomized to a different drug) was 7, the Responders ([5]; SULT4A1-1 positive) was 38.8% and the “Mean difference in total PANSS score between olanzapine and labelled drug, CATIE SULT4A1-1−” value ([5]; SULT4A1-1−) was −3.8. The “Percent change … (standard deviation)” value ([5]; SULT4A1-1−, complete sample) was 0.84 (26.5) %, the “Percent change … (standard deviation)” value ([5]; SULT4A1-1−, patients randomized to a different medication) was 0.4 (26.7) % and the “Mean difference in total PANSS score between olanzapine and labelled drug, CATIE unsegmented” value ([5]; Unsegmented) was −6.2. For the same compound, the “Effect size: olanzapine SULT4A1-1+ vs comparator group” value [5, 8] was 0.75, the “Mean difference (95% CI) in delta PANSS: olanzapine SULT4A1-1+ minus comparator group” value [5, 8] was −14.9 (−28.3 to −1.5) and the “Difference in percent change in PANSS score (first group minus second)” value [5, 9] was −1.0%. For the same compound, the “Difference in percent change in PANSS score, corrected for age, age of onset and sex” value (“Difference in percent change … of onset and sex” below) [5, 9] was −0.54%, the “Difference in percent change in PANSS score (first group minus second)” value [5, 10] was −5.4% and the “Difference in percent change … of onset and sex” value [5, 10] was −2.65%. For the same compound, the “Effect Size attributable to SULT4A1-1 status in CATIE” value ([5]; olanzapine-treated SULT4A1-1 positive versus labelled drug-treated SULT4A1-1 positive) was −0.75^b, the “Difference in percent change in PANSS score (first group minus second)” value [5, 11] was −4.6% and the “Difference in percent change … of onset and sex” value [5, 11] was −3.33%. For the same compound, the “Difference in percent change in PANSS score (first group minus second)” value [5, 12] was −6.8%, the “Difference in percent change … of onset and sex” value [5, 12] was −2.91% and the “% Responders” value (schizophrenia patients [6]; SULT4A1-1 Negative) was 9.0%. The Nonresponders (schizophrenia patients [6]; SULT4A1-1 Negative) was 10, the Responders (schizophrenia patients [6]; SULT4A1-1 Negative) was 1 and the “% Responders” value (schizophrenia patients [6]; SULT4A1-1 Positive) was 0%. For the same compound, the Nonresponders (schizophrenia patients [6]; SULT4A1-1 Positive) was 1, the Responders (schizophrenia patients [6]; SULT4A1-1 Positive) was 0 and the “Effect Size vs. FGA” value ([7]; first generation antipsychotics, Davis et al. (2003)) was 0.01. The “Effect Size vs. Placebo” value ([7]; meta-analysis, Leucht et al. (2009), negative = greater reduction in PANSS) was −0.42 and the “Mean difference in total PANSS score between olanzapine and labelled drug, Meta-analysis” value ([7]; unsegmented populations, Leucht et al. (2009)) was −3.7.
